Assay results from patent US8357694B2, “Substituted 5,6-dihydro-6-phenylbenzo[F]isoquinolin-2-amine compounds” (ArQule, Inc., priority 2008, dated 2013).

melting point [°C]	SMILES
98 to 100	Brc1cccc(C2Cc3cnc(Nc4ccc(CCNCc5ccccc5)cc4)nc3-c3ccccc32)c1 (stereo not shown) [Example 46, N-(4-(2-(benzylamino)ethyl)phenyl)-6-(3-bromophenyl)-5,6-dihydrobenzo[h]quinazolin-2-amine]
83 to 85	Brc1cccc(C2Cc3cnc(Nc4ccc(CCNCCN5CCCC5)cc4)nc3-c3ccccc32)c1 (stereo not shown) [Example 47, 6-(3-bromophenyl)-N-(4-(2-(2-(pyrrolidin-1-yl)ethylamino)ethyl)phenyl)-5,6-dihydrobenzo[h]quinazolin-2-amine]
180 to 181	Clc1ccc(C2Cc3cnc(Nc4ccc(CCN5CCOCC5)cc4)nc3-c3ccccc32)cc1Cl (stereo not shown) [Example 50, 6-(3,4-dichlorophenyl)-N-(4-(2-morpholinoethyl)phenyl)-5,6-dihydrobenzo[h]quinazolin-2-amine]
166 to 167	Clc1ccc([C@H]2Cc3cnc(Nc4ccc(CCN5CCOCC5)cc4)nc3-c3ccccc32)cc1Cl [Example 51, (R)-6-(3,4-dichlorophenyl)-N-(4-(2-morpholinoethyl)phenyl)-5,6-dihydrobenzo[h]quinazolin-2-amine]
119 to 121	CN1CCN(CCc2ccc(Nc3ncc4c(n3)-c3ccccc3C(c3ccc(Cl)c(Cl)c3)C4)cc2)CC1 (stereo not shown) [Example 52, 6-(3,4-dichlorophenyl)-N-(4-(2-(4-methylpiperazin-1-yl)ethyl)phenyl)-5,6-dihydrobenzo[h]quinazolin-2-amine]
267 to 270	COCCN1CCN(CCc2ccc(Nc3ncc4c(n3)-c3ccccc3C(c3ccc(F)c(F)c3)C4)cc2)CC1 (stereo not shown) [Example 59, 6-(3,4-difluorophenyl)-N-(4-(2-(4-(2-methoxyethyl)piperazin-1-yl)ethyl)phenyl)-5,6-dihydrobenzo[h]quinazolin-2-amine]
52 to 54	COCCN1CCN(CCc2ccc(Nc3ncc4c(n3)-c3ccccc3C(c3ccccc3)C4)cc2)CC1 (stereo not shown) [Example 65, N-(4-(2-(4-(2-methoxyethyl)piperazin-1-yl)ethyl)phenyl)-6-phenyl-5,6-dihydrobenzo[h]quinazolin-2-amine]
80 to 82	CCCCN(C)CCc1ccc(Nc2ncc3c(n2)-c2ccccc2C(c2ccccc2C(F)(F)F)C3)cc1 (stereo not shown) [Example 68, N-(4-(2-(butyl(methyl)amino)ethyl)phenyl)-6-(2-(trifluoromethyl)phenyl)-5,6-dihydrobenzo[h]quinazolin-2-amine]
139 to 140	COCCN1CCN(CCc2ccc(Nc3ncc4c(n3)-c3ccccc3C(c3ccccc3C(F)(F)F)C4)cc2)CC1 (stereo not shown) [Example 69, N-(4-(2-(4-(2-methoxyethyl)piperazin-1-yl)ethyl)phenyl)-6-(2-(trifluoromethyl)phenyl)-5,6-dihydrobenzo[h]quinazolin-2-amine]
61 to 62	COCCNCCc1ccc(Nc2ncc3c(n2)-c2ccccc2C(c2ccccc2C(F)(F)F)C3)cc1 (stereo not shown) [Example 70, N-(4-(2-(2-methoxyethylamino)ethyl)phenyl)-6-(2-(trifluoromethyl)phenyl)-5,6-dihydrobenzo[h]quinazolin-2-amine]
157 to 158	CN1CCN(CCc2ccc(Nc3ncc4c(n3)-c3ccccc3C(c3ccccc3C(F)(F)F)C4)cc2)CC1 (stereo not shown) [Example 71, N-(4-(2-(4-methylpiperazin-1-yl)ethyl)phenyl)-6-(2-(trifluoromethyl)phenyl)-5,6 dihydrobenzo[h]quinazolin-2-amine]
234 to 235	CC(C)(C)OC(=O)N1CCN(CCc2ccc(Nc3ncc4c(n3)-c3ccccc3C(c3ccccc3C(F)(F)F)C4)cc2)CC1 (stereo not shown) [Example 72, tert-butyl 4-(4-(6-(2-(trifluoromethyl)phenyl)-5,6-dihydrobenzo[h]quinazolin-2-ylamino)phenethyl)piperazine-1-carboxylate]
164 to 166	CCCCN(C)CCc1ccc(Nc2ncc3c(n2)-c2ccccc2[C@H](c2ccc(F)cc2)C3)cc1 [Example 99, (S)—N-(4-(2-(butyl(methyl)amino)ethyl)phenyl)-6-(4-fluorophenyl)-5,6-dihydrobenzo[h]quinazolin-2-amine]
